Drawing on PubChem BioAssay AID493003 (Sanford-Burnham Center for Chemical Genomics, 2010), this text covers IC50 for 99 molecules.

Activity calls are given as the source filed them. How the calls were made is not given here.

The test concerns S. cerevisiae tim10-1 mutant growth, luminescence. Kind of test: tim10-1 yeast growth inhibition potency – luminescence, S. cerevisiae, uHTS hits, dose response (AID 493003).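 Further: yeast growth measured after about 22 hours at 25 °C.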

As usually defined, the IC50 is the concentration that gives 50% inhibition.

In the case of `CCCc1cc(-c2n[nH]c(=S)n2-c2cccc(C)c2)cs1`, the IC50 is 37.5 µM.
Under `Fc1ccccc1CNc1cc(Cl)cc(Cl)c1` stands 26 µM.
Under `O=C(C1CCN(C2CC(=O)N(c3cccc(Cl)c3)C2=O)CC1)N1CCCC1` (centres undefined) stands 18.2 µM.
The value for `O=C(/C=C/c1ccc2c(c1)OCCCO2)c1ccccc1O` was 12.2 µM; that for `Clc1ccc(Cn2c(/C=C/c3ccco3)nc3ccccc32)cc1` was 45.7 µM.
With `CCOC(=O)c1cnc2ccc(OC)cc2c1Nc1ccc2c(c1)OCCO2`, the IC50 was 79.3 µM.
The value for `C=C(C)COc1ccc(-c2[nH]ncc2Oc2ccccc2OC)c(O)c1` was > 100 µM (inactive).
On to `C/C(=N\OC(=O)NC(C)C)c1sc(-c2ccc(Cl)cc2)nc1C`, for which the IC50 was 33.5 µM.
The value for `O=C(Nc1ncc2c(n1)-c1ccccc1CC2)c1cccc(Cl)c1` was 52.7 µM; that for `Nc1cc2c(cc1C(=O)c1ccc(Cl)cc1)OCCO2` was 38.2 µM.
With `CC1=C/C(=N\OS(=O)(=O)c2ccccc2)C(C)=CC1=O`, the IC50 is 0.3 µM.
As to `CN1/C(=C\C(=O)Nc2ccc(Br)cc2)C(C)(C)c2ccccc21`, the IC50 was 38.7 µM.
The value for `COc1cccc(N2C(C(C)=O)=NN(c3ccccc3)C2c2ccc(N3CCOCC3)cc2)c1` (centres undefined) was > 100 µM (inactive).
The value for `CC(/C=N/Nc1nc(C)cc(C)n1)=C\c1ccc(C(C)C)cc1` was 39.1 µM.
The value for `CN(C)c1ccc(-[n+]2c(-c3ccccc3)cc(-c3ccccc3)cc2-c2ccccc2)cc1` was 23.7 µM; that for `O=C(CSCC(=O)N1CCCCC1)Nc1nc(-c2ccc(Cl)s2)cs1` was 37.9 µM; that for `COc1ccc(C(=O)C(CN2CCCC2)c2ccccc2)cc1` (centres undefined) was 19 µM.
As to `CC(=O)N1CCN(c2cc(N3CCc4ccccc4C3)c(F)cc2[N+](=O)[O-])CC1`, the concentration for half-maximal inhibition (IC50) was 9.9 µM.
The value for `COc1ccc(CCNC(=O)NC23CC4CC(CC(C4)C2)C3)cc1` was 51 µM; that for `CCCCOc1cccc(-c2cc(C(=O)NNC(=S)NCC)c3ccccc3n2)c1` was 89.3 µM.
Consider `N/C(=C\C(=O)c1cc(Cl)ccc1O)C(Cl)(Cl)Cl`, for which the IC50 is 47.3 µM.
Take `FC(F)Sc1ccc(NC(=S)NC2CCCC2)cc1`: the IC50 was 20.8 µM.
Consider `COc1ccc(N2C(=O)CC(Sc3nnc(-c4ccccc4)o3)C2=O)cc1` (centres undefined), for which the IC50 was 47.2 µM.
The value for `O=C(C1CCCN(S(=O)(=O)c2cccc3nsnc23)C1)N1CCc2ccccc21` (centres undefined) was 81.1 µM.
The value for `COc1ccc(C)c2sc(N3CCCC3)nc12` was 21.7 µM.
As to `CCOC(=O)c1c(-c2ccccc2)oc2cc(Br)c(O)cc12`, the IC50 is 20.6 µM.
The value for `Cc1nc(SCC(=O)N2CCN(c3ccccc3)CC2)c2oc3ccccc3c2n1` was 40.7 µM.
The value for `S=C1NC(c2cccs2)=CC(c2ccc(Br)cc2)N1` (centres undefined) was 18.1 µM; that for `O=C(CNS(=O)(=O)c1c(Cl)cccc1Cl)OCc1csc(-c2ccccc2)n1` was 41 µM; that for `CCOC(=O)c1ccc(NC(=O)CC2OCCN(CC)C2=O)cc1` (centres undefined) was 9.9 µM.
The value for `CCOC(=O)n1c(=O)n(Cc2ccccc2Cl)c2ccccc21` was 27.6 µM; that for `N/C(=N\OC(=O)CCCc1ccccc1)c1ccccc1Cl` was 16.4 µM.
For the molecule `O=C1C2C3C=CC(CO)(O3)C2C(=O)N1c1ccccc1-c1ccccc1` (centres undefined), the half-inhibitory concentration (IC50) is 4.92 µM.
Regarding `Clc1ccccc1Nc1nnc(-c2ccncc2)s1`, the IC50 was 52.7 µM.
On to `Cc1ccc(OCC(=O)O/N=C(\N)Cc2ccc(Cl)cc2)cc1`, for which the IC50 is 9.22 µM.
The value for `OC(COc1ccc2ccccc2c1Br)Cn1cnc(-c2ccccc2)c1` (centres undefined) was 18.1 µM; that for `CCOC(=O)N1CCN(S(=O)(=O)c2ccc3c(c2)CCN3C(=O)C2CCC2)CC1` was 34.2 µM; that for `O=C(Nc1ccc(OCC(F)(F)C(F)F)c(C(F)(F)F)c1)c1ccc(Cl)cc1` was 52.8 µM.
The value for `C/C(=N\NC(=S)NCc1ccccc1)c1ccc(Cl)s1` was 16.4 µM.
Under `N/C(=N\OC(=O)CCC1CCCC1)c1cccc([N+](=O)[O-])c1` stands 6.48 µM; under `O=C(Nc1ccccc1Cl)C(Cl)C(=O)c1ccccc1` (centres undefined), 70.1 µM.
As for `O=[N+]([O-])c1ccc(Sc2cccc3cccnc23)c([N+](=O)[O-])c1`, the IC50 was 78.7 µM.
The value for `CN(CCc1ccccn1)C1CC(=O)N(c2ccc(Cl)cc2)C1=O` (centres undefined) was 24.7 µM; that for `COc1ccc2oc(=O)c(-c3csc(Nc4cccc(O)c4)n3)cc2c1` was 21.9 µM; that for `CCOC(=O)/C=C/C(=O)Nc1cccc([N+](=O)[O-])c1` was 7.03 µM.
Under `COc1cc(/C=N/O)ccc1Oc1ccc([N+](=O)[O-])cc1[N+](=O)[O-]` stands 24.4 µM.
Under `COc1ccc(-c2noc(C3CCCN(C(=O)CCc4ccccc4)C3)n2)cc1` (centres undefined) stands 17.9 µM; under `O=C1CC(Sc2nnc(-c3ccccc3)o2)C(=O)N1c1ccccc1` (centres undefined), 28.3 µM; under `CCCOc1ccc2c(c1)C(=NN=C(N)N)c1cc(OCCC)ccc1-2`, 19.8 µM.
Consider `Cc1ccc(S(=O)(=O)c2nc(S(C)(=O)=O)sc2N2CCCCC2C)cc1` (centres undefined), for which the IC50 is 7.08 µM.
As for `O=C(Nc1ccc(Cl)c(C(F)(F)F)c1)c1ccco1`, the IC50 was 28.7 µM.
`COc1ccc(/C(N)=N/OC(=O)c2cccs2)cc1OC`: the IC50 is 42.8 µM.
Under `COC(=O)c1ccc(NC(=O)CN2CCN(S(=O)(=O)c3ccc(Br)cc3)CC2)cc1` stands 61.5 µM; under `CC(=O)SC1CC(=O)N(c2ccc(C(C)(C)C)cc2)C1=O` (centres undefined), 38.8 µM; under `COc1ccc(S(=O)(=O)Nc2ccc(O)c(Sc3nc4ccccc4s3)c2)cc1`, 34.1 µM.
With `COc1cccc(/C=N/n2c(C3CCCCC3)n[nH]c2=S)c1O`, the 50% inhibitory concentration (IC50) is 32.3 µM.
Under `Cc1cc(Cl)ccc1OCC(=O)Nc1nc(-c2cccs2)cs1` stands > 100 µM (inactive); under `C=CCc1c(C)nc(-c2ccccc2)nc1N/N=C/c1ccccc1`, 26.2 µM; under `CCNC(=S)NNC(=O)c1cc(-c2cc(C)ccc2C)nc2ccccc12`, 24.3 µM.
The value for `COC(=O)c1cccc(Nc2cc(C)nc(-c3ccccc3O)n2)c1` was > 100 µM (inactive).
Under `CCn1c(SCc2c(F)cccc2Cl)nnc1-c1ccco1` stands 24.3 µM; under `COc1ccccc1N1C(=O)CC(Sc2n[nH]c(-c3cccc(C)c3)n2)C1=O` (centres undefined), 7.68 µM.
Take `O=C(NC1CCCCC1)c1ccc(-c2ccc(Cl)cc2)o1`: the IC50 was 17.4 µM.
On to `CN(CCCC(=O)O)c1ccc(N=Nc2ccc([N+](=O)[O-])cc2)cc1`, for which the IC50 was 19.5 µM.
Under `COc1cccc(-c2nn3c(-c4ccccn4)nnc3s2)c1` stands 33.4 µM; under `c1ccc(Nc2cccc(Nc3ccccc3)c2)cc1`, 11.2 µM.
The value for `CCOc1ccccc1N1C(=O)CC(Sc2n[nH]c(-c3ccccc3)n2)C1=O` (centres undefined) was 10.6 µM; that for `O=C(OCn1ncc(Br)c(Br)c1=O)c1ccccc1Cl` was 6.12 µM.
Under `C=CCNC(=S)NNc1nc2c(c(=O)[nH]1)C1(CCCCC1)Cc1ccccc1-2` stands 40.3 µM.
As for `COc1ccc(-c2sc3cc4c(cc3c2C#CC2(N)CCCCC2)OCO4)cc1`, the IC50 was 12.5 µM.
Under `O=C(Nc1ccon1)c1cc2c(s1)CCCCCC2` stands 39.2 µM; under `CC(C)(C)c1cc(C(=O)N/N=C/c2ccc(F)cc2)n(-c2ccccc2)n1`, 36.4 µM; under `O=C(NC(=S)Nc1ccccc1N1CCCC1)c1ccc([N+](=O)[O-])cc1`, 14 µM.
The value for `CCN(CC)c1ncnc2c1ncn2Cc1c(Cl)cccc1Cl` was 45.9 µM.
On to `O=S(=O)(c1ccc2c(c1)OCCO2)N1CCC(O)(c2ccc(Cl)cc2)CC1`, for which the concentration for half-maximal inhibition (IC50) is 67.1 µM.
Under `O=Cc1c[nH]c2cccc(OCc3ccccc3)c12` stands 27.4 µM; under `C/C(=N\N=C1\NC(=O)C(CC(=O)Nc2ccc(C)c(Cl)c2)S1)C(C)(C)C` (centres undefined), 47.3 µM.
Under `O=C(O/N=C(/c1ccccc1)c1ccncc1)c1ccccc1[N+](=O)[O-]` stands 29 µM.
Under `COc1cccc(/C=C2\N=C(C3CCCCC3)OC2=O)c1OC` stands 36.3 µM; under `N/C(=N\OC(=O)CCC1CCCC1)c1ccc([N+](=O)[O-])cc1`, 16.9 µM.
Consider `CC(C)(O)[C@H]1O[C@H]2CC[C@@]3(C)[C@@](O)(CC[C@H]4Cc5c([nH]c6ccccc56)[C@@]43C)C2=CC1=O`, for which the IC50 is 33.5 µM.
Under `N/C(=N\OC(=O)c1cccc2ccccc12)c1ccncc1` stands 40.8 µM.
Under `CC(C)(C)C1CCc2nc(NC(=O)Cc3cn4ccsc4n3)sc2C1` (centres undefined) stands 22.7 µM; under `Oc1ccccc1-c1csc(-c2ccccc2)n1`, 26.3 µM; under `CN(C)CCCN(C(=O)c1ccc(S(=O)(=O)N2CCc3ccccc3C2)cc1)c1nc2c(F)cc(F)cc2s1`, 35.2 µM.
Consider `Cc1cc2c(cc1C)CSC(c1ccccc1O)SC2`, for which the half-maximal inhibitory concentration (IC50) was 20.7 µM.
The value for `N/C(CCS(=O)(=O)c1ccc(Cl)cc1)=N\OC(=O)c1ccccc1C(F)(F)F` was 37.5 µM; that for `O=C(Oc1ccc(C(=S)N2CCOCC2)cc1)c1ccccc1[N+](=O)[O-]` was 25.4 µM; that for `CCOC(=O)N1CCN(S(=O)(=O)c2ccc(C(=O)N(CCN(CC)CC)c3nc4ccc(C)cc4s3)cc2)CC1` was 60.8 µM.
The value for `COc1cc2c(cc1OC)CN(c1ccc([N+](=O)[O-])cc1Cl)CC2` was 27.6 µM; that for `CCn1c(=S)sc2c(=O)n(-c3ccccc3)c(SC)nc21` was 68.4 µM; that for `CC(=O)/C(=N\Nc1ccc(Cl)cc1Cl)Sc1cccc2cccnc12` was 41.3 µM.
`CC[C@@H]1CC=C[C@H]2[C@H]1C(=O)N(Cc1ccccc1)[C@H]2c1ccoc1`: the IC50 is 7.61 µM.
The value for `COc1ccc(Cl)cc1NC(=S)NCc1ccco1` was 16.2 µM.
Under `COc1ccc(C(=O)Nc2ccc(S(=O)(=O)N3CCCCC3)cc2)cc1OC` stands 27.9 µM; under `Cc1c(Cl)c([N+](=O)[O-])nn1Cc1ccc(C(=O)Nc2ccc(Cl)cn2)o1`, 47.6 µM; under `O=C(Nc1cccc(C(=O)N2CCN(c3cccc(Cl)c3)CC2)c1)c1ccccc1`, 35.2 µM.
Under `Cc1ccc(/C(N)=N/OC(=O)c2ccc3c(c2)OCO3)cc1` stands 9.34 µM.
Consider `CN(C)CCCN(C(=O)c1cc2cc([N+](=O)[O-])ccc2s1)c1nc2cc3c(cc2s1)OCCO3`, for which the IC50 was 13.7 µM.
